According to PubChem BioAssay AID256 (DTP/NCI, 2004):
Several values for one entry are separate records, joined by “and”; a condition that tells them apart may be missing. Equal entries are not always repeated. Toxic doses and inconclusive results are not listed. Rule for the calls: active = survival T/C of 150% or more; inactive = T/C below 125% in these data.

System: CD2F1 mice, L1210 leukemia ip, survival T/C
Assay: NCI In Vivo Anticancer Drug Screen. Data for tumor model L1210 Leukemia (intraperitoneal) in CD2F1 (CDF1) mice
Settings: higher = longer survival
Summary of the method: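 Mice carrying a transplanted tumor received test compound or vehicle alone. The value is the measurement in the treated group divided by that in the vehicle-treated control group.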

[1] = endpoint: mean survival time, dose: 100.0 mg/kg/injection, schedule: Q01DX009 (ip), vehicle: saline with Tween-80
[2] = endpoint: mean survival time, dose: 100.0 mg/kg/injection, schedule: Q04DX003 (ip), vehicle: saline with Tween-80
[3] = endpoint: mean survival time, dose: 200.0 mg/kg/injection, schedule: Q01DX009 (ip), vehicle: saline with Tween-80
[4] = endpoint: mean survival time, dose: 200.0 mg/kg/injection, schedule: Q04DX003 (ip), vehicle: saline with Tween-80
[5] = endpoint: mean survival time, dose: 400.0 mg/kg/injection, schedule: Q04DX003 (ip), vehicle: saline with Tween-80
[6] = endpoint: mean survival time, dose: 400.0 mg/kg/injection, schedule: Q01DX009 (ip), vehicle: saline with Tween-80
[7] = endpoint: mean survival time, dose: 50.0 mg/kg/injection, schedule: Q01DX009 (ip), vehicle: saline with Tween-80
[8] = endpoint: mean survival time, dose: 100.0 mg/kg/injection, schedule: Q04DX002 (ip), vehicle: saline with Tween-80
[9] = endpoint: mean survival time, dose: 200.0 mg/kg/injection, schedule: Q04DX002 (ip), vehicle: saline with Tween-80
[10] = endpoint: mean survival time, dose: 100.0 mg/kg/injection, schedule: Q01DX001 (ip), vehicle: saline with Tween-80
[11] = endpoint: mean survival time, dose: 200.0 mg/kg/injection, schedule: Q01DX001 (ip), vehicle: saline with Tween-80

Measured: T/C

CC(=O)Oc1ccc(Cl)cc1
inactive: [1] 95 % of control | [2] 103 % of control | [3] 98 % of control | [4] 89 % of control | [5] 89 % of control

CC(=O)Nc1ccc([N+](=O)[O-])c2ccccc12
inactive: endpoint: mean survival time, dose: 37.5 mg/kg/injection, schedule: Q04DX002 (ip), vehicle: saline with Tween-80 101 % of control | endpoint: mean survival time, dose: 75.0 mg/kg/injection, schedule: Q04DX002 (ip), vehicle: saline with Tween-80 101 % of control | endpoint: mean survival time, dose: 150.0 mg/kg/injection, schedule: Q04DX002 (ip), vehicle: saline with Tween-80 104 % of control

O=C(O)CC[P+](c1ccccc1)(c1ccccc1)c1ccccc1
inactive: [1] 95 % of control | [3] 92 % of control | [6] 89 % of control

Cc1ccc(OCC(=O)C2CSc3ccc(Cl)cc32)cc1 (centres undefined)
inactive: [2] 97 % of control | [4] 94 % of control | [5] 111 % of control

COc1ccccc1C(=O)C1N=C(c2ccccc2)OC1=O (centres undefined)
inactive: endpoint: mean survival time, dose: 100.0 mg/kg/injection, schedule: Q01DX001 (ip), vehicle: saline 98 % of control | endpoint: mean survival time, dose: 200.0 mg/kg/injection, schedule: Q01DX001 (ip), vehicle: saline 97 % of control | endpoint: mean survival time, dose: 400.0 mg/kg/injection, schedule: Q01DX001 (ip), vehicle: saline 97 % of control

Cc1cc(N/N=c2/c3ccccc3n(O)c3c2ccc2ccccc23)ccc1O
inactive: [2] 104 % of control | [4] 104 % of control | [5] 104 % of control

O=C(CNC(=O)Nc1ccc(F)cc1)N/N=C/c1ccc(Cl)c(Cl)c1
inactive: [7] 96 % of control | [1] 96 % of control | [3] 100 % of control

CCN(N=O)C(=O)N(Cc1ccccc1)Cc1ccccc1
inactive: endpoint: mean survival time, dose: 25.0 mg/kg/injection, schedule: Q01DX009 (ip), vehicle: other 94 % of control | endpoint: mean survival time, dose: 50.0 mg/kg/injection, schedule: Q01DX009 (ip), vehicle: other 94 % of control | endpoint: mean survival time, dose: 100.0 mg/kg/injection, schedule: Q01DX009 (ip), vehicle: other 96 % of control | endpoint: mean survival time, dose: 200.0 mg/kg/injection, schedule: Q01DX009 (ip), vehicle: other 96 % of control

CCCSP(SCCC)SCCC
inactive: endpoint: mean survival time, dose: 50.0 mg/kg/injection, schedule: Q01DX001 (ip), vehicle: Klucel (hydroxypropylcellulose) (HPC) 107 % of control | endpoint: mean survival time, dose: 100.0 mg/kg/injection, schedule: Q01DX001 (ip), vehicle: Klucel (hydroxypropylcellulose) (HPC) 96 % of control | endpoint: mean survival time, dose: 200.0 mg/kg/injection, schedule: Q01DX001 (ip), vehicle: Klucel (hydroxypropylcellulose) (HPC) 101 % of control

C=C(Br)CNC(=O)CCC
inactive: endpoint: mean survival time, dose: 2.5 mg/kg/injection, schedule: Q01DX009 (ip), vehicle: saline with Tween-80 107 % of control | endpoint: mean survival time, dose: 5.0 mg/kg/injection, schedule: Q01DX009 (ip), vehicle: saline with Tween-80 106 % of control | endpoint: mean survival time, dose: 10.0 mg/kg/injection, schedule: Q01DX009 (ip), vehicle: saline with Tween-80 102 % of control

c1ccc([Si]c2ccccc2)cc1
inactive: [2] 104 % of control | [4] 102 % of control | [5] 102 % of control

CC(=O)Cc1nc(N)nc(Nc2ccc(Cl)c(Cl)c2)n1
inactive: endpoint: mean survival time, dose: 100.0 mg/kg/injection, schedule: Q01DX009 (ip), vehicle: saline 96 % of control | endpoint: mean survival time, dose: 200.0 mg/kg/injection, schedule: Q01DX009 (ip), vehicle: saline 97 % of control | endpoint: mean survival time, dose: 400.0 mg/kg/injection, schedule: Q01DX009 (ip), vehicle: saline 111 % of control

Cc1cc(C)c(C(=O)CCCC(=O)O)c(C)c1
inactive: [2] 94 % of control | [4] 92 % of control

OCC1OC(c2cnn(-c3ccccc3)n2)C(O)C1O (centres undefined)
inactive: endpoint: median survival time, dose: 12.5 mg/kg/injection, schedule: Q01DX005 (ip), vehicle: water 103 % of control | endpoint: median survival time, dose: 25.0 mg/kg/injection, schedule: Q01DX005 (ip), vehicle: water 103 % of control | endpoint: median survival time, dose: 50.0 mg/kg/injection, schedule: Q01DX005 (ip), vehicle: water 102 % of control | endpoint: median survival time, dose: 100.0 mg/kg/injection, schedule: Q01DX005 (ip), vehicle: water 104 % of control | endpoint: median survival time, dose: 200.0 mg/kg/injection, schedule: Q01DX005 (ip), vehicle: water 102 % of control

CC1=C(N)C(=O)N(C)C1=O
inactive: endpoint: mean survival time, dose: 25.0 mg/kg/injection, schedule: Q04DX002 (ip), vehicle: saline with Tween-80 98 % of control | endpoint: mean survival time, dose: 50.0 mg/kg/injection, schedule: Q04DX002 (ip), vehicle: saline with Tween-80 95 % of control | [8] 98 % of control | [9] 98 % of control

Nc1cc(=O)[nH]c(=S)[nH]1
inactive: [8] 97 % of control | [9] 105 % of control

Cc1cc2c(C)c3cc(C)c(N)cc3nc2cc1N
inactive: endpoint: mean survival time, dose: 75.0 mg/kg/injection, schedule: Q01DX001 (ip), vehicle: saline 103 % of control

O=C(O)CC(C(=O)O)C(=O)O
inactive: endpoint: mean survival time, dose: 100.0 mg/kg/injection, schedule: Q04DX003 (ip), vehicle: saline 100 % of control | endpoint: mean survival time, dose: 200.0 mg/kg/injection, schedule: Q04DX003 (ip), vehicle: saline 97 % of control | endpoint: mean survival time, dose: 400.0 mg/kg/injection, schedule: Q04DX003 (ip), vehicle: saline 94 % of control

CC(C)(CCC(C)(C)NCCCN)NCCCN
inactive: endpoint: mean survival time, dose: 12.5 mg/kg/injection, schedule: Q01DX009 (ip), vehicle: water 94 % of control | endpoint: mean survival time, dose: 25.0 mg/kg/injection, schedule: Q01DX009 (ip), vehicle: water 97 % of control | endpoint: mean survival time, dose: 50.0 mg/kg/injection, schedule: Q01DX009 (ip), vehicle: water 109 % of control

COC(=O)CC1(C(=O)OC)OC(=O)c2ccccc2N1C (centres undefined)
inactive: [1] 103 % of control | [3] 106 % of control | [6] 101 % of control

COc1ccc(C(=S)c2ccc(OC)cc2)cc1
inactive: [10] 101 % of control | [11] 96 % of control | endpoint: mean survival time, dose: 400.0 mg/kg/injection, schedule: Q01DX001 (ip), vehicle: saline with Tween-80 101 % of control

COC(=O)C(CCl)NC(C)=O (centres undefined)
inactive: [1] 96 % of control and 101 % of control | [3] 96 % of control and 102 % of control | [6] 108 % of control and 98 % of control

O=C1C=C(c2ccccc2)C/C1=C\c1ccccc1
inactive: [10] 87 % of control | [11] 87 % of control

O=C(Nc1ccc([N+](=O)[O-])cc1)OC1CCS(=O)(=O)C1 (centres undefined)
inactive: endpoint: mean survival time, dose: 75.0 mg/kg/injection, schedule: Q04DX003 (ip), vehicle: saline 102 % of control | endpoint: mean survival time, dose: 150.0 mg/kg/injection, schedule: Q04DX003 (ip), vehicle: saline 98 % of control | endpoint: mean survival time, dose: 300.0 mg/kg/injection, schedule: Q04DX003 (ip), vehicle: saline 101 % of control

Nc1ncnc2nc(-c3ccc(C(=O)c4cccc([N+](=O)[O-])c4)cc3)[nH]c12
inactive: endpoint: mean survival time, dose: 100.0 mg/kg/injection, schedule: Q04DX003 (ip), vehicle: Klucel (hydroxypropylcellulose) (HPC) 108 % of control | endpoint: mean survival time, dose: 200.0 mg/kg/injection, schedule: Q04DX003 (ip), vehicle: Klucel (hydroxypropylcellulose) (HPC) 102 % of control | endpoint: mean survival time, dose: 400.0 mg/kg/injection, schedule: Q04DX003 (ip), vehicle: Klucel (hydroxypropylcellulose) (HPC) 100 % of control

C[n+]1ccccc1CCC(=O)Nc1ccccc1
inactive: endpoint: mean survival time, dose: 25.0 mg/kg/injection, schedule: Q01DX009 (ip), vehicle: saline with Tween-80 103 % of control | [7] 95 % of control | [1] 88 % of control
